This is an account of results in patent US9555036B2, “Pyrazolopyrimidine compounds” (GlaxoSmithKline LLC, priority 2012, dated 2017).

Each structure is given as a SMILES string. Where a name gives a salt, the structure may show the parent alone.

The test system of the assay is TNF-α. The experiment in a line: Induction of TNF-α using fresh human whole blood (WB). It counts as cell-based. To be noted: three donors, overnight incubation, cytokine as % of 2 μM resiquimod control, read-out: mean pEC50 for TNF-α (converted). As to the method: Assay for the Induction of Interferon-α and TNF-α Using Fresh Human Whole Blood (WB) Compound Preparation
Compounds were prepared at 100× required concentration in DMSO in flat-bottom microtitre plates at a volume of 1.5 μL. Columns 1-10 contained a 1 in 4 serial dilution of the test compound. Included on each plate was a serial dilution of the TLR7/8 agonist resiquimod as a standard and Column 11 contained 1.5 μl of 200 μM resiquimod (giving a 2 μM final concentration, used to define the approximate maximal response to resiquimod). Each compound was assayed in duplicate for each donor.
Incubation and Assays for Interferon-α and TNF-α
Blood samples from three human donors were collected into sodium heparin (10 U/ml). 150 μl of whole Blood was dispensed into Col 1 to 11 of assay plates containing 1.5 μl of test compound or standard in DMSO. Plates were placed in an incubator overnight (37° C., 95% air, 5% CO2). Following the overnight incubation, plates were removed from the incubator & mixed on an orbital shaker for approximately 1 minute. 100 μl of 0.9% saline was added to each well and the plates mixed again on an orbital shaker. Plates were then centrifuged (2500 rpm, 10 mins), after which a sample of plasma was removed using a Biomek FX and assayed for both IFN-α and TNF-α using the MSD (Mesoscale Discovery) electrochemiluminescence assay platform. The IFN-α assay was carried out similarly to that described above. The TNF-α assay was carried out as per kit instructions (Cat No K111BHB).
Cytokine released was expressed as a percentage of the 2 μM resiquimod control (column 11). This percentage was plotted against compound concentration and the pEC50 for the response determined by non-linear least squares curve fitting. For the IFN-α responses, generally a 4 parameter logistic model was selected. For the TNF responses where a clear maximum response was obtained (i.e. a well defined plateau in the response was observed) then a 4 parameter model was generally used. If the upper asymptote of the curve wasn't well defined then the curve fitting was generally constrained to a maximal response of 100% (i.e. to the response to 2 μM resiquimod) or to the response of the highest concentration tested if this was greater than the resiquimod response. Some curves were bell shaped for one or both cytokines and the cytokine data on the down slope of the bell shaped response (i.e. concentrations above those giving the maximal response) were generally excluded from the fit, usually with the exception of the concentration immediately above the peak response. Curve fitting thus concentrated on the up slope of the dose response curve.

Take `CCCCc1nc(N)c2[nH]nc(CCCCCCN3CC[C@H](F)C3)c2n1` [Example 11, (S)-5-Butyl-3-(6-(3-fluoropyrrolidin-1-yl)hexyl)-1H-pyrazolo[4,3-d]pyrimidin-7-amine]: the EC50 was ≤ 3.98 µM.

On to `CCCCc1nc(N)c2[nH]nc(CCCCCCN3CCC(F)CC3)c2n1` [Example 17, 5-Butyl-3-(6-(4-fluoropiperidin-1-yl)hexyl)-1H-pyrazolo[4,3-d]pyrimidin-7-amine formate], for which the EC50 was ≤ 3.98 µM. For the compound `CCCCc1nc(N)c2[nH]nc(CCCCCCCN3CCCC3)c2n1` [Example 8, 5-Butyl-3-(7-(pyrrolidin-1-yl)heptyl)-1H-pyrazolo[4,3-d]pyrimidin-7-amine], the EC50 is ≤ 3.98 µM. As for `CCCCc1nc(N)c2[nH]nc(CCCCCCN3CCCCC3)c2n1` [Example 1, 5-Butyl-3-(6-(piperidin-1-yl)hexyl)-1H-pyrazolo[4,3-d]pyrimidin-7-amine formate], the figure is ≤ 3.98 µM; as for `COCCc1nc(N)c2[nH]nc(CCCCCCN3CCCCC3)c2n1` [Example 2, 5-(2-Methoxyethyl)-3-(6-(piperidin-1-yl)hexyl)-1H-pyrazolo[4,3-d]pyrimidin-7-amine], ≤ 3.98 µM. For the compound `CCCCc1nc(N)c2[nH]nc(CCCCCN3CCC(O)CC3)c2n1` [Example 16, 1-(5-(7-Amino-5-butyl-1H-pyrazolo[4,3-d]pyrimidin-3-yl)pentyl)piperidin-4-ol], the EC50 is ≤ 3.98 µM.

Take `CCCCc1nc(N)c2[nH]nc(CCCCCN3CCCCCC3)c2n1` [Example 10, 3-(5-(Azepan-1-yl)pentyl)-5-butyl-1H-pyrazolo[4,3-d]pyrimidin-7-amine]: the EC50 was ≤ 3.98 µM. As for `CCCCc1nc(N)c2[nH]nc(CCCCCCCN3CCCCC3)c2n1` [Example 7, 5-Butyl-3-(7-(piperidin-1-yl)heptyl)-1H-pyrazolo[4,3-d]pyrimidin-7-amine], the figure is ≤ 3.98 µM; as for `CCCCc1nc(N)c2[nH]nc(CCCCCN3CCCCC3)c2n1` [Example 5, 5-Butyl-3-(5-(piperidin-1-yl)pentyl)-1H-pyrazolo[4,3-d]pyrimidin-7-amine], ≤ 3.98 µM; as for `CCCCc1nc(N)c2[nH]nc(CCCCCN3CC[C@H](F)C3)c2n1` [Example 12, (S)-5-Butyl-3-(5-(3-fluoropyrrolidin-1-yl)pentyl)-1H-pyrazolo[4,3-d]pyrimidin-7-amine], ≤ 3.98 µM. As for `COCCc1nc(N)c2[nH]nc(CCCCCCN3CCCC3)c2n1` [Example 4, 5-(2-Methoxyethyl)-3-(6-(pyrrolidin-1-yl)hexyl)-1H-pyrazolo[4,3-d]pyrimidin-7-amine], the EC50 is ≤ 3.98 µM. The result for `CCCCc1nc(N)c2[nH]nc(CCCCCN3CCCC3)c2n1` [Example 6, 5-Butyl-3-(5-(pyrrolidin-1-yl)pentyl)-1H-pyrazolo[4,3-d]pyrimidin-7-amine] reads ≤ 3.98 µM; that for `CCCCc1nc(N)c2[nH]nc(CCCCCN3CC[C@@H](F)C3)c2n1` [Example 14, (R)-5-Butyl-3-(5-(3-fluoropyrrolidin-1-yl)pentyl)-1H-pyrazolo[4,3-d]pyrimidin-7-amine], ≤ 3.98 µM; that for `CCCCc1nc(N)c2[nH]nc(CCCCCCN3CCC(O)CC3)c2n1` [Example 15, 1-(6-(7-Amino-5-butyl-1H-pyrazolo[4,3-d]pyrimidin-3-yl)hexyl)piperidin-4-ol], ≤ 3.98 µM. For `CCCCc1nc(N)c2[nH]nc(CCCCCN3CCC(F)CC3)c2n1` [Example 18, 5-Butyl-3-(5-(4-fluoropiperidin-1-yl)pentyl)-1H-pyrazolo[4,3-d]pyrimidin-7-amine], the EC50 is ≤ 3.98 µM.

On to `CCCCc1nc(N)c2[nH]nc(CCCCCCN3CC[C@@H](F)C3)c2n1` [Example 13, (R)-5-Butyl-3-(6-(3-fluoropyrrolidin-1-yl)hexyl)-1H-pyrazolo[4,3-d]pyrimidin-7-amine formate], for which the EC50 was ≤ 3.98 µM. Take `CCCCc1nc(N)c2[nH]nc(CCCCCCN3CCCCCC3)c2n1` [Example 9, 3-(6-(Azepan-1-yl)hexyl)-5-butyl-1H-pyrazolo[4,3-d]pyrimidin-7-amine]: the EC50 is ≤ 3.98 µM.
